This note sets out measurements from patent publication US8076514B2, “Phenyl compounds and their use in the treatment of Type II diabetes” (Eli Lilly and Company, priority 2005, dated 2011).

Structures can show the parent of a compound that is named as a salt.

The experiment concerns the target T1, human recombinant DPIV enzyme (Homo sapiens, UniProt P27487).
T1 construct: Secreted DPIV (lacking membrane anchor) is enriched from HEK293 cell culture supernatant; made in house; host or cells: HEK293
The experiment in a line: Human Recombinant DPIV Activity Assay (fluorometric end point, Gly-Pro-AMC substrate). It is filed as biochemical. Conditions: enriched human recombinant DPIV, Gly-Pro-AMC 0.02 mM, 12 points concentration response curve. As to the method: Human Recombinant DPIV Activity Assay The DPIV assay uses a fluorometric end point assay (excitation 355 nm; emission 460 nm), enriched human recombinant DPIV enzyme (21.3 μU/μl), and Gly-Pro-AMC (Bachem I-1225) as substrate (0.02 mM). Secreted DPIV (lacking membrane anchor) is enriched from HEK293 cell culture supernatant by ultrafiltration, ultra-centrifugation, and size-exclusion chromatography. IC50 values of the compounds are calculated based on a 12 points concentration response curve. Each concentration is measured in duplicate. The assay is validated by plate variability and conformity, inter-plate variability, signal window, and minimum significant ration of IC50. A MSR is calculated based on a test/retest analysis and a retrospective analysis. The MSR value is 1.8.

T1 sequence (P27487 29-766 limits assumed): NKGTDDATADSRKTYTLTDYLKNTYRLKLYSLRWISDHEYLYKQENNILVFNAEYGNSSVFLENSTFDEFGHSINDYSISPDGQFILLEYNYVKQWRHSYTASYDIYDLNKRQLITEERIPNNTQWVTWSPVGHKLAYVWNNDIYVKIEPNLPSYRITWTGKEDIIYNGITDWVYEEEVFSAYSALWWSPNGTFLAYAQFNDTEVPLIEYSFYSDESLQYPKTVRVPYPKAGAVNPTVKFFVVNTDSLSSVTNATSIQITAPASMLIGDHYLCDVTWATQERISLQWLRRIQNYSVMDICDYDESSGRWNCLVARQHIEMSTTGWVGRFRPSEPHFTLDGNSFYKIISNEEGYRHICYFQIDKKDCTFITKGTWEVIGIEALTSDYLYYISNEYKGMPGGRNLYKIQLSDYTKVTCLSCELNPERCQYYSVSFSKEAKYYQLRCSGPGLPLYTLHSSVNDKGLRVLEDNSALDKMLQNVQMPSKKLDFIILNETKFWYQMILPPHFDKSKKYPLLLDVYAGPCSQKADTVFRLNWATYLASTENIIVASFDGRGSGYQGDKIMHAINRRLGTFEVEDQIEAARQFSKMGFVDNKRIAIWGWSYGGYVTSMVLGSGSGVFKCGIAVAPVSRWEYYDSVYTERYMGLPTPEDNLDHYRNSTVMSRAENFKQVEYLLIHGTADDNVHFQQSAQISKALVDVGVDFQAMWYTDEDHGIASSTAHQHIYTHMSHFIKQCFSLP

Turning to `COc1ccc(C(=O)NC(C)(C)C)c(C[C@H](O)[C@H](N)Cc2ccccc2F)c1` [Example 6, 2-[(2S,3R)-3-Amino-4-(2-fluoro-phenyl)-2-hydroxy-butyl]-N-tert-butyl-4-methoxy-benzamide Hydrochloride], the concentration for half-maximal inhibition (IC50) (commonly the point on the concentration scale where inhibition reaches its midpoint) was determined as 98 nM.

Regarding `CC(C)(C)NC(=O)c1cc(Cl)ccc1C[C@H](O)[C@H](N)Cc1ccccc1F` [Example 7, 2-[(2S,3R)-3-Amino-4-(2-fluoro-phenyl)-2-hydroxy-butyl]-N-tert-butyl-5-chloro-benzamide Hydrochloride], the 50% inhibitory concentration (IC50) amounted to 134 nM.
